In patent publication US20230117470A1, “SUBSTITUTED PYRAZOLE COMPOUNDS AS TOLL RECEPTOR INHIBITORS” (BRISTOL-MYERS SQUIBB COMPANY, priority 2019, published 2023):

What was measured:
Assay type in all cases: cell-based
human TLR7 = target: T1, human TLR7 (Homo sapiens, UniProt Q9NYK1); test: TLR7 inhibition reporter assay (HEK-Blue cells, SEAP reporter, gardiquimod stimulation); conditions: HEK-Blue cells overexpressing human TLR7, SEAP reporter, gardiquimod 7.5 μM
T1 construct: host or cells: HEK-Blue cells
T1 sequence (Q9NYK1 27-1049): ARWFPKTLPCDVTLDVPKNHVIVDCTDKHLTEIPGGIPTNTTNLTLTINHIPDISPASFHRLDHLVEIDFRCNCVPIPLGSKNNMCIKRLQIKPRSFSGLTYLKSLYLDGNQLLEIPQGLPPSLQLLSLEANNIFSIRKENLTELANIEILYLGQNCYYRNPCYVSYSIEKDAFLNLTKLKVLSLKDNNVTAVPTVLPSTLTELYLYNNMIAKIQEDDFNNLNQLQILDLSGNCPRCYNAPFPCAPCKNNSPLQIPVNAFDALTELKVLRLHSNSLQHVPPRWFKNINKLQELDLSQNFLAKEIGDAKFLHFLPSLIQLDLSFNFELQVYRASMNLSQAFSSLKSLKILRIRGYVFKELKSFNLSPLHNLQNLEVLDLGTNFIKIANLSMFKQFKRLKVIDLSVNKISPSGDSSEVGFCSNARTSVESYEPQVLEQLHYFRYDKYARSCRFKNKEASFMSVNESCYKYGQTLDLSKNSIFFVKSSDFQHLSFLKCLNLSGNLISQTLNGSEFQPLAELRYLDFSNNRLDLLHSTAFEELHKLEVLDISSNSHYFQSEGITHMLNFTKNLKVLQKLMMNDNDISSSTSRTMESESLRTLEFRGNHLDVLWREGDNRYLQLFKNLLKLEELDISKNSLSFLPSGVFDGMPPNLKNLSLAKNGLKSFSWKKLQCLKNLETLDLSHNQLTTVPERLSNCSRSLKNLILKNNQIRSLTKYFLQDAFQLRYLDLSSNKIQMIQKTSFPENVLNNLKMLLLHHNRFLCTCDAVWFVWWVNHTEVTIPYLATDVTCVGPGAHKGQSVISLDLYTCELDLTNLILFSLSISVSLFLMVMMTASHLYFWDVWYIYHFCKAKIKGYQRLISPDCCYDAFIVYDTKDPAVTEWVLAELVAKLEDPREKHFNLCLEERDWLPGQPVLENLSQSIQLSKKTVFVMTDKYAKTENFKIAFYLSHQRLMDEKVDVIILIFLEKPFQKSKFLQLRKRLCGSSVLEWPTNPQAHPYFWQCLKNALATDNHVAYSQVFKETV
Procedure, shortened: (§1)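 Percent inhibition of agonist-induced SEAP, set between agonist+DMSO wells and known-inhibitor wells, after 22 h at 37° C. Compounds (0.05 nM-50 μM final) were added 30 min at room temperature before ligand: gardiquimod 7.5 μM for TLR7, R848 15.9 μM for TLR8, ODN2006 5 nM for TLR9. Human receptors overexpressed in HEK-Blue reporter cells.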

human TLR8 = target: T2, human TLR8 (Homo sapiens, UniProt Q9NR97); test: TLR8 inhibition reporter assay (HEK-Blue cells, SEAP reporter, R848 stimulation); conditions: HEK-Blue cells overexpressing human TLR8, SEAP reporter, R848 15.9 μM
T2 construct: host or cells: HEK-Blue cells
T2 sequence (Q9NR97 27-1041): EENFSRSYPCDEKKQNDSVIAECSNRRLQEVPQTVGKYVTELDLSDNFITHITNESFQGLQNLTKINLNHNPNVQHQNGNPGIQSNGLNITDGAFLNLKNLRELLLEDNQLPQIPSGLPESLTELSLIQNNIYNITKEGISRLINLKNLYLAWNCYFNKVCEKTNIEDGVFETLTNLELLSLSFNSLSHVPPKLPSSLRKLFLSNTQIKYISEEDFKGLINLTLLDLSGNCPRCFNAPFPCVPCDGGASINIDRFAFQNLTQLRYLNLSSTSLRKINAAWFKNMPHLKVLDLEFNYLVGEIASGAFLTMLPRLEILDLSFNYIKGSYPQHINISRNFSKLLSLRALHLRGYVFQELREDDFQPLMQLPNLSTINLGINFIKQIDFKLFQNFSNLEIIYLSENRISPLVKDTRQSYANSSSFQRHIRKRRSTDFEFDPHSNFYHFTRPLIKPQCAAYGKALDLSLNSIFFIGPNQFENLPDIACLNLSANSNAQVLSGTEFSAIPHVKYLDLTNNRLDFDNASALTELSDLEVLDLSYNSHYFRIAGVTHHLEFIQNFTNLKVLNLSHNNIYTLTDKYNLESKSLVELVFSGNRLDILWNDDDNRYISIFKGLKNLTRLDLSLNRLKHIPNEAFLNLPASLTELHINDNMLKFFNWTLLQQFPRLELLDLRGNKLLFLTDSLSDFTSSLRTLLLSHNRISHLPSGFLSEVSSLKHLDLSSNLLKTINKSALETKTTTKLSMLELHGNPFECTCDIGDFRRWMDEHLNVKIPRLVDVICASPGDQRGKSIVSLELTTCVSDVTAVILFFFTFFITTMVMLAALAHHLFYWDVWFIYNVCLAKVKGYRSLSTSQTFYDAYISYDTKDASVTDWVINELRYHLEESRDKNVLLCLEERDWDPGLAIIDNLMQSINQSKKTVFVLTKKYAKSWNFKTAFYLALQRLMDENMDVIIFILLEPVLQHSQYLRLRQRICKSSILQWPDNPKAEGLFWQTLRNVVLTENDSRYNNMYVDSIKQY
Procedure, shortened: as §1

human TLR9 = target: T3, human TLR9 (Homo sapiens, UniProt Q9NR96); test: TLR9 inhibition reporter assay (HEK-Blue cells, SEAP reporter, ODN2006 stimulation); conditions: HEK-Blue cells overexpressing human TLR9, SEAP reporter, ODN2006 5 nM
T3 construct: host or cells: HEK-Blue cells
T3 sequence (Q9NR96 26-1032): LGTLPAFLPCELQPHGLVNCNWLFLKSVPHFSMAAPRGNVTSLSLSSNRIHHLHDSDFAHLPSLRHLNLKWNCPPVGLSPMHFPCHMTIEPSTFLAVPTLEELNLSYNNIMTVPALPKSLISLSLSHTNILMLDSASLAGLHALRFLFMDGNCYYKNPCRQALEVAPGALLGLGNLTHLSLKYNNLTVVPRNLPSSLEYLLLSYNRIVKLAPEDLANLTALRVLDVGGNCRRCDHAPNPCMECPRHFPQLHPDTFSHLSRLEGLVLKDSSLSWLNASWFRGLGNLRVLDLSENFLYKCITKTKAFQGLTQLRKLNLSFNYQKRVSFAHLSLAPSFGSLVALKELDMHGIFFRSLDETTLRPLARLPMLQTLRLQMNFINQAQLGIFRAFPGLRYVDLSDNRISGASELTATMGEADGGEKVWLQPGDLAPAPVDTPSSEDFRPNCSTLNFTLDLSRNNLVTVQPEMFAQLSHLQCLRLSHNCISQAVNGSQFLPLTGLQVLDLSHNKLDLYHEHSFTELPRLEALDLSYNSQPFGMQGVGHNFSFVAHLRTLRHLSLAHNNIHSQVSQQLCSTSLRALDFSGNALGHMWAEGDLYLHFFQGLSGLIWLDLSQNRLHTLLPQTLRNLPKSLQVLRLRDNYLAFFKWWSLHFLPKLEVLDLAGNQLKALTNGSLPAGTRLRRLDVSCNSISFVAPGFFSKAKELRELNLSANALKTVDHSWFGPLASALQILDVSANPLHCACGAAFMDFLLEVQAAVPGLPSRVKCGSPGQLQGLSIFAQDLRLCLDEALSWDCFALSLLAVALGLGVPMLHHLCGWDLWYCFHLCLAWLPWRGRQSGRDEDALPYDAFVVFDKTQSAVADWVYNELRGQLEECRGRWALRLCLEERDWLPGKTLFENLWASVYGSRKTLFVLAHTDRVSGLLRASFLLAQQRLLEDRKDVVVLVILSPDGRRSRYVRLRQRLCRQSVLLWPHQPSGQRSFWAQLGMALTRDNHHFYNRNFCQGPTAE
Procedure, shortened: as §1

SMILES	IC50 (human TLR7) [nM]	IC50 (human TLR8) [nM]	IC50 (human TLR9) [nM]
Cc1cc(-c2[nH]nc(C(=O)N[C@H]3CC[C@H](NC4CCOCC4)CC3)c2C(C)C)cn2ncnc12 [Example 116]	3.11	1.91	3880
Cc1cc(-c2[nH]nc(C(=O)N[C@H]3CC[C@H](NC(C)C(C)C)CC3)c2C(C)C)cn2ncnc12 (stereo partly drawn) [Example 118]	2	1.26	3300
CCC(CC)N[C@H]1CC[C@H](NC(=O)c2n[nH]c(-c3cc(C)c4ncnn4c3)c2C(C)C)CC1 [Example 119]	3.33	54.2	> 50000
Cc1cc(-c2[nH]nc(C(=O)N[C@H]3CC[C@H](NC(C)CC(C)(C)C)CC3)c2C(C)C)cn2ncnc12 (stereo partly drawn) [Example 120]	4.19	16.7	> 50000
Cc1cc(-c2[nH]nc(C(=O)NC3CCC(NC4(C)COC4)CC3)c2C(C)C)cn2ncnc12 (stereo not drawn) [Example 123]	5.09	16.8	6290
Cc1cc(-c2[nH]nc(C(=O)NC3CCC(NC4(C)COC4)CC3)c2C(C)C)cn2ncnc12 (stereo not drawn) [Example 124]	7.72	31.5	28600
Cc1cc(-c2[nH]nc(C(=O)NC3CCN(C(C)C(C)C)CC3)c2C(C)C)cn2ncnc12 (stereo not drawn) [Example 125]	5.8	25.9	5400
Cc1cc(-c2[nH]nc(C(=O)NC3CCC(NCC(C)(C)C)CC3)c2C(C)C)cn2ncnc12 (stereo not drawn) [Example 126]	0.98	6.83	13200
COCCN(C)C1CCC(NC(=O)c2n[nH]c(-c3cc(C)c4ncnn4c3)c2C(C)C)CC1 (stereo not drawn) [Example 128]	1.21	8.29	13400
CNC1CCC(NC(=O)c2n[nH]c(-c3cc(C)c4ncnn4c3)c2C(C)C)CC1 (stereo not drawn) [Example 129]	1.34	7.36	14400
CNC1CCC(NC(=O)c2n[nH]c(-c3cc(C)c4ncnn4c3)c2C(C)C)CC1 (stereo not drawn) [Example 130]	0.45	2.42	11500
Cc1cc(-c2[nH]nc(C(=O)NC3CCC(NCC(C)(C)C)CC3)c2C(C)C)cn2ncnc12 (stereo not drawn) [Example 131]	7.48	32.6	10900
Cc1cc(-c2[nH]nc(C(=O)NCC3CN(C)CCO3)c2C(C)C)cn2ncnc12 (stereo not drawn) [Example 134]	1.23	1.28	16100
Cc1cc(-c2[nH]nc(C(=O)NCC3CN(C(C)C)CCO3)c2C(C)C)cn2ncnc12 (stereo not drawn) [Example 135]	6.8	38.9	22400
Cc1cc(-c2[nH]nc(C(=O)NCC3CN(C4COC4)CCO3)c2C(C)C)cn2ncnc12 (stereo not drawn) [Example 136]	1.69	4.36	42800
Cc1cc(-c2[nH]nc(C(=O)NCC3CN(CC4(C)COC4)CCO3)c2C(C)C)cn2ncnc12 (stereo not drawn) [Example 137]	3.4	40.8	6730
Cc1cc(-c2[nH]nc(C(=O)NC3CCN(CC(C)(C)O)CC3)c2C(C)C)cn2ncnc12 [Example 138]	0.93	3.96	14800
Cc1cc(-c2[nH]nc(C(=O)NCC3CN(C)CCO3)c2C(C)C)cn2ncnc12 (stereo not drawn) [Example 139]	4.96	26.3	17500
CCN1CCOC(CNC(=O)c2n[nH]c(-c3cc(C)c4ncnn4c3)c2C(C)C)C1 (stereo not drawn) [Example 140]	0.59	0.89	10400
Cc1cc(-c2[nH]nc(C(=O)NCC3CN(C(C)C)CCO3)c2C(C)C)cn2ncnc12 (stereo not drawn) [Example 141]	3.03	13.5	12800
Cc1cc(-c2[nH]nc(C(=O)NCC3CN(C4COC4)CCO3)c2C(C)C)cn2ncnc12 (stereo not drawn) [Example 142]	2.08	2.7	6970
Cc1cc(-c2[nH]nc(C(=O)NCC3CN(CC(C)(C)O)CCO3)c2C(C)C)cn2ncnc12 (stereo not drawn) [Example 143]	5.34	19.6	9280
